Our source for the melting point values is US7576215B2, “Quinolines and pharmaceutical compositions thereof” (Wyeth, priority 2003, dated 2009).

By melting point is commonly meant the temperature of the solid-liquid transition. In the case of `O=C(O)c1ccc(COc2cccc(-c3c(-c4ccccc4)cnc4c(C(F)(F)F)cccc34)c2)cc1` [Example 512, 4-({3-[3-PHENYL-8-(TRIFLUOROMETHYL)QUINOLIN-4-YL]PHENOXY}METHYL)BENZOIC ACID], the melting point lay in the range of 108 to 112 °C.

`COc1cc(C(=O)O)ccc1COc1cccc(-c2c(C(=O)c3ccccc3)cnc3c(C(F)(F)F)cccc23)c1` [Example 515, 4-({3-[3-BENZOYL-8-(TRIFLUOROMETHYL)QUINOLIN-4-YL]PHENOXY}METHYL)-3METHOXY-BENZOIC ACID] had a melting point of 100 to 110 °C.

`Cc1ccccc1-c1cnc2c(C(F)(F)F)cccc2c1-c1cccc(NC(=O)Nc2ccccc2F)c1` [Example 573, N-(2-FLUOROPHENYL)-N′-{3-[3-(2-METHYLPHENYL)-8-(TRIFLUOROMETHYL)QUINOLIN-4-YL]PHENYL}UREA] yielded a melting point of 218 to 220 °C.
